Measured values taken from publication PMC7921015, “Spatiotemporal GLP-1 and GIP receptor signaling and trafficking/recycling dynamics induced by selected receptor mono- and dual-agonists” (Molecular Metabolism, 2021).
Blank lines part the entries; values can stand above or below the molecule they belong to.

Columns and labels:
Human GLP-1R-GFP (human) [1] = target: Human GLP-1R-GFP (human) (UniProt P43220)
[2] = target: Human GIPR-turbo GFP (human) (UniProt P48546)
Human GLP-1R-GFP (human) [3] = target: Human GLP-1R-GFP (human) (UniProt P43220); remark: listed apart in the source
[4] = target: Human GIPR-turbo GFP (human) (UniProt P48546); remark: listed apart in the source
human GLP-1R [5] = target: T1, human GLP-1R (Homo sapiens, UniProt P43220); experiment: cAMP assay (CAMYEL BRET sensor), GLP-1R; type: cell-based; details: CAMYEL sensor, no IBMX, mean ± SEM, at least 3 experiments, SEM
T1 construct: host or cells: HEK293T
Description: (§1) The cells were seeded (700,000 cells/well) in 6-well plates and incubated to ∼70% confluency in complete media supplemented with 10% FBS and 1% Pen-Strep. […] Baseline measurements were taken after 5 min of incubation with coelenterazine-h or NanoGlo. The cells were then treated with a vehicle or the respective agonists. […] The temporal data of the vehicle-corrected agonist measurement was then normalized to the baseline reading of the same well. The first BRET reading following treatment with agonist/vehicle was the subsequent measurement after the zero time point. Positive or negative incremental areas under the curves (+iAUC/-iAUC) were calculated where noted. Each experiment was independently performed at least three times, with at least two technical replicates for each group.
(§2) CAMYEL, a cAMP sensor using YFP-Epac-RLuc was utilized to quantify cAMP accumulation with the temporal resolution. Then, 500 ng of CAMYEL DNA was co-transfected with 500 ng of DNA of untagged GLP-1R or GIPR per well in a 6-well plate. The experiments were performed in the absence of 3-isobutyl-1-methylxanthine (IBMX).
(§3) Data are represented as means ± S.E.M. Each experiment was independently conducted at least three times, each with at least two technical replicates. […] Dose responses were fitted using non-linear regression. pEC50 and EC50 values were calculated using GraphPad Prism 8.0 (GraphPad, San Diego, CA, USA). Statistical analyses were calculated in GraphPad 8.0 using one-way analysis of variance (ANOVA) and corrected with Tukey's or Bonferroni's multiple comparison test. Differences are considered significant with an adjusted p value < 0.05.

human GLP-1R [6] = target: T1, human GLP-1R; experiment: Gαq (mini-G) recruitment BRET assay, GLP-1R; type: cell-based; details: HEK293T, GLP-1R-GFP + NLuc-mini-G, +iAUC 60 min
human GLP-1R [7] = target: T1, human GLP-1R; experiment: GPCR internalization assay (loss of BRET with Venus-KRAS), GLP-1R; type: cell-based; details: HEK293T, hGLP-1R-Rluc8 + Venus-KRAS, iAUC 60 min
human GLP-1R [8] = target: T1, human GLP-1R; experiment: β-arrestin 1 recruitment BRET assay, GLP-1R; type: cell-based; details: HEK293T, GLP-1R-GFP + β-arrestin1-RLUC8, BRET, +iAUC 30 min
Description: as §1
(§4) Co-localization of β-arrestin1/2-RLUC8 with GLP-1R-GFP or GIPR-GFP was assessed.
as §3, with “Differences are considered significant with an adjusted p value < 0.05.” left out

human GLP-1R [9] = target: T1, human GLP-1R; experiment: β-arrestin 2 recruitment BRET assay, GLP-1R; type: cell-based; details: HEK293T, GLP-1R-GFP + β-arrestin2-RLUC8, BRET, +iAUC 30 min
Description: as §1, §4
as §3, with “Differences are considered significant with an adjusted p value < 0.05.” left out

human GLP-1R [10] = target: T1, human GLP-1R; experiment: Gαs (mini-G) recruitment BRET assay, GLP-1R; type: cell-based; details: HEK293T, GLP-1R-GFP + NLuc-mini-G, +iAUC 60 min
human GIPR [11] = target: T2, human GIPR (Homo sapiens, UniProt P48546); experiment: cAMP assay (CAMYEL BRET sensor), GIPR; type: cell-based; details: HEK293T, GIPR, CAMYEL sensor, no IBMX, +iAUC 25 min
T2 sequence (P48546 22-466): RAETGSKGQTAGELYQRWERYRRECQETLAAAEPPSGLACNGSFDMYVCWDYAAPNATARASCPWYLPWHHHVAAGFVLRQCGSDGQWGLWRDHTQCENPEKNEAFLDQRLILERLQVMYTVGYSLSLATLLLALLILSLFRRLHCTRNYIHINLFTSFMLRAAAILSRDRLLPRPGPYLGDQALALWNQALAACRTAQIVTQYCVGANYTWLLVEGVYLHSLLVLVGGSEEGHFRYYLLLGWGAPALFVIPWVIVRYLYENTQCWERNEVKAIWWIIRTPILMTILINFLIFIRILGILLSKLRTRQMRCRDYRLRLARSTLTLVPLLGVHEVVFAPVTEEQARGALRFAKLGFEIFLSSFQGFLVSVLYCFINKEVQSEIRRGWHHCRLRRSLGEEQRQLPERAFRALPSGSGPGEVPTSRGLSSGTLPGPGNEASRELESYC
Description: as §1, §2, §3

human GIPR [12] = target: T2, human GIPR; experiment: Gαq (mini-G) recruitment BRET assay, GIPR; type: cell-based; details: HEK293T, GIPR-GFP + NLuc-mini-G, +iAUC 60 min
human GIPR [13] = target: T2, human GIPR; experiment: GPCR internalization assay (loss of BRET with Venus-KRAS), GIPR; type: cell-based; details: HEK293T, hGIPR-Rluc8 + Venus-KRAS, iAUC 20 min
human GIPR [14] = target: T2, human GIPR; experiment: β-arrestin 1 recruitment BRET assay, GIPR; type: cell-based; details: HEK293T, GIPR-GFP + β-arrestin1-RLUC8, BRET, +iAUC 30 min
Description: as §1, §4, §3

human GIPR [15] = target: T2, human GIPR; experiment: β-arrestin 2 recruitment BRET assay, GIPR; type: cell-based; details: HEK293T, GIPR-GFP + β-arrestin2-RLUC8, BRET, +iAUC 30 min
Description: as §1, §4, §3

human GIPR [16] = target: T2, human GIPR; experiment: Gαs (mini-G) recruitment BRET assay, GIPR; type: cell-based; details: HEK293T, GIPR-GFP + NLuc-mini-G, +iAUC 60 min
[17] = HEK-293T, mean ± SEM, at least 3 experiments, SEM
[18] = read-out: Receptor Internalization EC50
[19] = read-out: β-arr1 Recruitment EC50
[20] = read-out: β-arr2 Recruitment EC50

T1 sequence (P43220 24-463): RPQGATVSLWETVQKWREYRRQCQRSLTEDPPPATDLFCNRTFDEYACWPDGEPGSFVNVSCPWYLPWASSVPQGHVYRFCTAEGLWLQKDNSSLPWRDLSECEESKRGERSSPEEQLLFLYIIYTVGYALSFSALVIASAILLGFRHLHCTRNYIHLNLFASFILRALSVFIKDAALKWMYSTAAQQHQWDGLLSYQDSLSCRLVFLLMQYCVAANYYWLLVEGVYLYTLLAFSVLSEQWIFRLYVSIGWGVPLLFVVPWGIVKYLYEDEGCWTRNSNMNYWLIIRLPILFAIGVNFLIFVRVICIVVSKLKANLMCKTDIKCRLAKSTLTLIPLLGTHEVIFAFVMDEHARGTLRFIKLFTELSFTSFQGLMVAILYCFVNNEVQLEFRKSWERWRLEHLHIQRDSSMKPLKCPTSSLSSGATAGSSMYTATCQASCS
Sequence of Human GLP-1R-GFP (human) (P43220 24-463): as above

GLP-1R internalization Emax, % of GLP-1 (7–36 amide) (loss of BRET between hGLP-1R-Rluc8 and Venus-KRAS, HEK293T) (Human GLP-1R-GFP (human) [1]): 51%
GIPR internalization Emax, % of GIP (1–42) (loss of BRET between hGIPR-Rluc8 and Venus-KRAS, HEK293T) [2]: 4%
GLP-1R co-localization with Rab5 early endosomes (BRET of hGLP-1R-Rluc8 with Venus-Rab5, HEK293T), 1 μM, % of GLP-1 (7–36 amide) (Human GLP-1R-GFP (human) [3]): 68%
GLP-1R co-localization with Rab7 late endosomes (BRET of hGLP-1R-Rluc8 with Venus-Rab7, HEK293T), % of GLP-1 (7–36 amide) (Human GLP-1R-GFP (human) [3]): 62%
GIPR co-localization with Rab5^+ endosomes (BRET of hGIPR-Rluc8 with Venus-Rab5, HEK293T), % of the response to GIP (1–42), fatty acyl-GIP and tirzepatide [4]: 66%
Molecule: MAR709 (peptide)

Molecule: CCCCCCCCCCCCCCCC(=O)NCCCC[C@H](NC(=O)[C@H](CO)NC(=O)[C@@H]1CCCN1C(=O)[C@@H]1CCCN1C(=O)[C@@H]1CCCN1C(=O)[C@H](C)NC(=O)CNC(=O)[C@H](CO)NC(=O)[C@H](CO)NC(=O)[C@@H]1CCCN1C(=O)CNC(=O)CNC(=O)[C@H](C)NC(=O)[C@H](CC(C)C)NC(=O)[C@H](CC(C)C)NC(=O)[C@H](Cc1c[nH]c2ccccc12)NC(=O)[C@H](CC(N)=O)NC(=O)[C@@H](NC(=O)[C@H](Cc1ccccc1)NC(=O)[C@H](CCC(=O)O)NC(=O)C(C)(C)NC(=O)[C@H](C)NC(=O)[C@H](C)NC(=O)[C@H](CCC(N)=O)NC(=O)[C@H](CCCCN)NC(=O)[C@H](CC(=O)O)NC(=O)[C@H](CC(C)C)NC(=O)[C@H](Cc1ccc(O)cc1)NC(=O)[C@@H](NC(=O)[C@H](CO)NC(=O)[C@@H](NC(=O)[C@H](CC(=O)O)NC(=O)[C@H](CO)NC(=O)[C@@H](NC(=O)[C@H](Cc1ccccc1)NC(=O)[C@@H](NC(=O)CNC(=O)[C@H](CCC(=O)O)NC(=O)C(C)(C)NC(=O)[C@@H](N)Cc1c[nH]cn1)[C@@H](C)O)[C@@H](C)O)C(C)C)[C@@H](C)CC)C(C)C)C(N)=O [fatty acyl-GLP-1]
EC50 (human GLP-1R [5]; HEK293T, GLP-1R, +iAUC 25 min, read-out: cAMP pEC50 (converted)): 0.363 nM
Emax (human GLP-1R [5]; HEK-293T, HEK293T transiently expressing untagged GLP-1R, +iAUC of 25 min response, 3-parameter fit): 99 ± 3%
EC50 (human GLP-1R [6]): 305 nM
Emax (human GLP-1R [6]; [17]): 101 ± 5%
EC50 (human GLP-1R [7]; [18]): 490 nM
Emax (human GLP-1R [7]; HEK-293T, mean ± SEM, at least 3 experiments, SEM, read-out: Receptor Internalization Emax (% GLP-1)): 108 ± 4%
EC50 (human GLP-1R [8]; [19]): 358 nM
Emax (human GLP-1R [8]; HEK-293T, mean ± SEM, at least 3 experiments, SEM, read-out: β-arr1 Recruitment Emax (% GLP-1)): 88 ± 4%
EC50 (human GLP-1R [9]; [20]): 188 nM
Emax (human GLP-1R [9]; HEK-293T, mean ± SEM, at least 3 experiments, SEM, read-out: β-arr2 Recruitment Emax (% GLP-1)): 86 ± 3%
EC50 (human GLP-1R [10]): 423 nM
Emax (human GLP-1R [10]; [17]): 98 ± 5%
EC50 (human GIPR [11]; mean ± SEM, read-out: cAMP pEC50 (converted)): > 1000 nM
EC50 (human GIPR [11]; read-out: cAMP EC50): > 1000 nM
EC50 (human GIPR [12]; mean ± SEM, read-out: Gαq Recruitment pEC50 (converted)): > 1000 nM
EC50 (human GIPR [12]; read-out: Gαq Recruitment EC50): > 1000 nM
EC50 (human GIPR [13]; mean ± SEM, read-out: Receptor Internalization pEC50 (converted)): > 1000 nM
EC50 (human GIPR [13]; [18]): > 1000 nM
EC50 (human GIPR [14]; [19]): > 1000 nM
EC50 (human GIPR [14]; read-out: β-arr1 Recruitment pEC50 (converted)): > 1000 nM
EC50 (human GIPR [15]; mean ± SEM, read-out: β-arr2 Recruitment pEC50 (converted)): > 1000 nM
EC50 (human GIPR [15]; [20]): > 1000 nM
EC50 (human GIPR [16]; mean ± SEM, read-out: Gαs Recruitment pEC50 (converted)): > 1000 nM
EC50 (human GIPR [16]; read-out: Gαs Recruitment EC50): > 1000 nM
